# Measurements taken from publication PMC6268642, “Facile Synthesis and Herbicidal Evaluation of 4H-3,1-Benzoxazin-4-ones and 3H-Quinazolin-4-ones with 2-Phenoxymethyl Substituents” (Molecules, 2012).
# Where two headings read alike, the source gives them in different places.
# Legend:
# [1] = test system: barnyard grass Echinochloa crusgalli; test: Petri dish culture, growth inhibition of root and stalk of barnyard grass; format: in vivo; conditions: 5 days; for inhibition at 1 µg/mL / inhibition at 10 µg/mL: Echinochloa crus-galli, 120 h
# Method: (§1) The synthesized compounds were tested for the herbicidal activity on model plants including a monocotyledon (barnyard grass) and a dicotyledon (rape) by the reported Petri dish culture method. The percent inhibitory ratios against the growth of root and stalk of barnyard grass and rape at different dosage concentrations were calculated, and the compounds with appreciable inhibitory potencies are selected and shown in Table 1 and Table 2. Several features of the inhibitory activities can be derived. First, all the compounds have stronger inhibition against the growth of the dicotyledon rape than against the monocotyledon barnyard grass, showing appreciable selectivity.
# (§2) The herbicidal activity was examined for the growth inhibition effect of the dicotyledon rape Brassica napus and the monocotyledon barnyard grass Echinochloa crusgalli, using the standard Petri dish test and the pre-emergence treatment procedure. […] Nine mL of the solution was added in a Petri dish of 9 cm diameter and two pieces of filter paper were placed on the dish bottom. Twenty seeds each of rape and barnyard grass were placed on the filter paper. The covered Petri dish was transferred into an artificial climate incubator (MGC-400H, Shantou Keyi Co., Ltd., China), where the conditions were controlled at temperature 23 ± 1 °C, humidity 60 ± 5%, light intensity 10 Klux, and photoperiod 12 h/day. The incubation was continued for 5 days, then the lengths of 10 roots and 10 stems for each type of plant were measured and the mean values were calculated. The percent inhibitory ratios were calculated relative to control plants exposing to distilled water instead of the compound solution.
# rape Brassica napus [2] = test: Petri dish culture, growth inhibition of root and stalk of rape; format: in vivo; conditions: 5 days; for inhibition at 1 µg/mL / inhibition at 10 µg/mL: Brassica napus, 120 h
# Method: as §1, §2
# rape Brassica napus [3] = test: Concentration-dependent root elongation inhibition of rape (IC50); format: in vivo
# Method: Several representative compounds selected from the 2-phenoxy-4H-3,1-benzoxazin-4-one and 2-phenoxy-3H-quinazolin-4-one groups were tested their concentration dependant activities and the half maximal inhibitory concentrations (IC50 values) are shown in Table 3. Obviously, the 2-phenoxy-4H-3,1-benzoxazin-4-ones 3m and 3o have IC50 values near to that of the commercial herbicidal 2,4-D. More importantly, these molecules consist of 2-phenoxymethyl group with halo substituents both at the 2- and 4- positions of the benzene ring, a similar pattern to the commercial hormone herbicides 2,4-D, clomeprop, and 2,4-DB, as well as the ACCase herbicide diclofop-methyl. […] Moreover, if no halo group exists on the benzene ring, the activity will decrease dramatically. On the other hand, the substructure 4H-3,1-benzoxazin-4-one in this work and the carboxylic group in the commercial phenoxyethanoic and phenoxypropionic acid herbicides play also a crucial role in the contribution to the activities of the compounds, meaning they are active substructures.
# The herbicidal activity was examined for the growth inhibition effect of the dicotyledon rape Brassica napus and the monocotyledon barnyard grass Echinochloa crusgalli, using the standard Petri dish test and the pre-emergence treatment procedure. Briefly, the compounds to be tested were dissolved in DMF and emulsified with Tween 80, and the solutions were diluted with water to the concentrations of […], respectively. Nine mL of the solution was added in a Petri dish of 9 cm diameter and two pieces of filter paper were placed on the dish bottom. Twenty seeds each of rape and barnyard grass were placed on the filter paper. The covered Petri dish was transferred into an artificial climate incubator (MGC-400H, Shantou Keyi Co., Ltd., China), where the conditions were controlled at temperature 23 ± 1 °C, humidity 60 ± 5%, light intensity 10 Klux, and photoperiod 12 h/day. The incubation was continued for 5 days, then the lengths of 10 roots and 10 stems for each type of plant were measured and the mean values were calculated. The percent inhibitory ratios were calculated relative to control plants exposing to distilled water instead of the compound solution.
# [4] = 1 mg/L, root growth, read-out: Relative inhibition, root
# [5] = 1 mg/L, stalk growth, read-out: Relative inhibition, stalk
# [6] = 10 mg/L, root growth, read-out: Relative inhibition, root
# [7] = 10 mg/L, stalk growth, read-out: Relative inhibition, stalk
# [8] = Brassica napus, rape root elongation, Table 3, read-out: IC50 for the root elongation inhibition of rape
compound,measurement,setting,value
"COc1cc2nc(COc3ccc(Cl)cc3Cl)n(N)c(=O)c2cc1OC [4j, 3-Amino-2-((2,4-dichlorophenoxy)methyl)-6,7-dimethoxy-3H-quinazolin-4-one]",inhibition at 1 µg/mL,[1]; [4],7.7%
same,inhibition at 1 µg/mL,[1]; [5],8.3%
same,inhibition at 10 µg/mL,[1]; [6],60%
same,inhibition at 10 µg/mL,[1]; [7],5%
same,inhibition at 1 µg/mL,rape Brassica napus [2]; [4],58.4%
same,inhibition at 1 µg/mL,rape Brassica napus [2]; [5],40.2%
same,inhibition at 10 µg/mL,rape Brassica napus [2]; [6],84.9%
same,inhibition at 10 µg/mL,rape Brassica napus [2]; [7],67.2%
same,IC50,rape Brassica napus [3]; [8],168 µM
same,melting point,,272.3 to 273.1 °C
"O=c1oc(COc2ccc(Cl)cc2Cl)nc2cccc(Cl)c12 [3n, 5-Chloro-2-((2,4-dichlorophenoxy)methyl)-4H-benzo[3,1]oxazin-4-one]",inhibition at 1 µg/mL,[1]; [4],44.4%
same,inhibition at 1 µg/mL,[1]; [5],12.8%
same,inhibition at 10 µg/mL,[1]; [6],57.5%
same,inhibition at 10 µg/mL,[1]; [7],-1.9%
same,inhibition at 1 µg/mL,rape Brassica napus [2]; [4],80.5%
same,inhibition at 1 µg/mL,rape Brassica napus [2]; [5],38.7%
same,inhibition at 10 µg/mL,rape Brassica napus [2]; [6],79.2%
same,inhibition at 10 µg/mL,rape Brassica napus [2]; [7],45.9%
same,IC50,rape Brassica napus [3]; [8],43.5 µM
same,melting point,,161.9 to 163.2 °C
"COc1cc2nc(COc3ccc(Cl)cc3Cl)oc(=O)c2cc1OC [3q, 2-((2,4-Dichlorophenoxy)methyl)-6,7-dimethoxy-4H-3,1-benzoxazin-4-one]",inhibition at 1 µg/mL,[1]; [4],35.5%
same,inhibition at 1 µg/mL,[1]; [5],-7.4%
same,inhibition at 10 µg/mL,[1]; [6],51.9%
same,inhibition at 10 µg/mL,[1]; [7],-52.8%
same,inhibition at 1 µg/mL,rape Brassica napus [2]; [4],58.3%
same,inhibition at 1 µg/mL,rape Brassica napus [2]; [5],14.8%
same,inhibition at 10 µg/mL,rape Brassica napus [2]; [6],100%
same,inhibition at 10 µg/mL,rape Brassica napus [2]; [7],85.2%
same,IC50,rape Brassica napus [3]; [8],142 µM
same,melting point,,161.9 to 163.2 °C
"Cn1c(COc2ccc(Cl)cc2)nc2cccc(Cl)c2c1=O [4k, 5-Chloro-2-((4-chlorophenoxy)methyl)-3-methyl-3H-quinazolin-4-one]",inhibition at 1 µg/mL,[1]; [4],32.2%
same,inhibition at 1 µg/mL,[1]; [5],7.5%
same,inhibition at 10 µg/mL,[1]; [6],50.9%
same,inhibition at 10 µg/mL,[1]; [7],1.5%
same,inhibition at 1 µg/mL,rape Brassica napus [2]; [4],48.8%
same,inhibition at 1 µg/mL,rape Brassica napus [2]; [5],21.6%
same,inhibition at 10 µg/mL,rape Brassica napus [2]; [6],81.9%
same,inhibition at 10 µg/mL,rape Brassica napus [2]; [7],52.9%
same,IC50,rape Brassica napus [3]; [8],201 µM
same,melting point,,184.9 to 185.7 °C
"CCOc1ccc(Cl)cc1Cl [2,4-dichlorophenyl ethyl ether, reference compound]",herbicidal activity (control experiment),"rape Brassica napus [3]; compound without the 4H-3,1-benzoxazin-4-one substructure, plant not stated",loses nearly all of its herbicidal activity
"O=c1oc(COc2ccc(Cl)cc2Cl)nc2ccc(Cl)cc12 [3o, 6-Chloro-2-((2,4-dichlorophenoxy)methyl)-4H-3,1-benzoxazin-4-one]",inhibition at 1 µg/mL,[1]; [4],73.6%
same,inhibition at 1 µg/mL,[1]; [5],-29.1%
same,inhibition at 10 µg/mL,[1]; [6],89.4%
same,inhibition at 10 µg/mL,[1]; [7],14.5%
same,inhibition at 1 µg/mL,rape Brassica napus [2]; [4],93.7%
same,inhibition at 1 µg/mL,rape Brassica napus [2]; [5],66.2%
same,inhibition at 10 µg/mL,rape Brassica napus [2]; [6],100%
same,inhibition at 10 µg/mL,rape Brassica napus [2]; [7],91.4%
same,IC50,rape Brassica napus [3]; [8],10.7 µM
same,IC50,"rape Brassica napus [3]; Brassica napus, rape root growth, read-out: IC50, inhibitory efficacy against the rape root growth",0.0104 µM
same,melting point,,157.9 to 160.1 °C
"O=c1oc(COc2ccc(Cl)cc2)nc2cccc(Cl)c12 [3h, 5-Chloro-2-((4-chlorophenoxy)methyl)-4H-3,1-benzoxazin-4-one]",inhibition at 1 µg/mL,[1]; [4],59.8%
same,inhibition at 1 µg/mL,[1]; [5],14.7%
same,inhibition at 10 µg/mL,[1]; [6],88.7%
same,inhibition at 10 µg/mL,[1]; [7],41.9%
same,inhibition at 1 µg/mL,rape Brassica napus [2]; [4],96.3%
same,inhibition at 1 µg/mL,rape Brassica napus [2]; [5],62%
same,inhibition at 10 µg/mL,rape Brassica napus [2]; [6],100%
same,inhibition at 10 µg/mL,rape Brassica napus [2]; [7],91.7%
same,IC50,rape Brassica napus [3]; [8],138 µM
same,melting point,,144.3 to 145.7 °C
"3-Amino-7-chloro-2-((2,4-dichlorophenoxy)methyl)-3H-quinazolin-4-one [4i]","Relative inhibition, root","[1]; 1 mg/L, root growth",24.3%
same,"Relative inhibition, stalk","[1]; 1 mg/L, stalk growth",−7.2%
same,"Relative inhibition, root","[1]; 10 mg/L, root growth",68.5%
same,"Relative inhibition, stalk","[1]; 10 mg/L, stalk growth",38.1%
same,"Relative inhibition, root","rape Brassica napus [2]; 1 mg/L, root growth",93.6%
same,"Relative inhibition, stalk","rape Brassica napus [2]; 1 mg/L, stalk growth",92.3%
same,"Relative inhibition, root","rape Brassica napus [2]; 10 mg/L, root growth",98.2%
same,"Relative inhibition, stalk","rape Brassica napus [2]; 10 mg/L, stalk growth",95.7%
same,IC50,"rape Brassica napus [3]; rape root elongation, Table 3, read-out: IC50 for the root elongation inhibition of rape",27.2 µM
"O=c1oc(COc2ccc(Cl)cc2Cl)nc2ccccc12 [3m, 2-((2,4-Dichlorophenoxy)methyl)-4H-3,1-benzoxazin-4-one]",inhibition at 1 µg/mL,[1]; [4],38.3%
same,inhibition at 1 µg/mL,[1]; [5],-22.7%
same,inhibition at 10 µg/mL,[1]; [6],100%
same,inhibition at 10 µg/mL,[1]; [7],-0.6%
same,inhibition at 1 µg/mL,rape Brassica napus [2]; [4],96.3%
same,inhibition at 1 µg/mL,rape Brassica napus [2]; [5],77.7%
same,inhibition at 10 µg/mL,rape Brassica napus [2]; [6],100%
same,inhibition at 10 µg/mL,rape Brassica napus [2]; [7],93.8%
same,IC50,rape Brassica napus [3]; [8],10.3 µM
same,melting point,,118.5 to 119.3 °C
"O=c1oc(COc2ccc(Cl)cc2Cl)nc2cc(Cl)ccc12 [3p, 7-Chloro-2-((2,4-dichlorophenoxy)methyl)-4H-3,1-benzoxazin-4-one]",inhibition at 1 µg/mL,[1]; [4],64.3%
same,inhibition at 1 µg/mL,[1]; [5],5.9%
same,inhibition at 10 µg/mL,[1]; [6],100%
same,inhibition at 10 µg/mL,[1]; [7],-14.4%
same,inhibition at 1 µg/mL,rape Brassica napus [2]; [4],98%
same,inhibition at 1 µg/mL,rape Brassica napus [2]; [5],82.3%
same,inhibition at 10 µg/mL,rape Brassica napus [2]; [6],100%
same,inhibition at 10 µg/mL,rape Brassica napus [2]; [7],91.4%
same,IC50,rape Brassica napus [3]; [8],11.1 µM
same,melting point,,139.6 to 142.5 °C
"Nn1c(COc2ccc(Cl)cc2Cl)nc2ccccc2c1=O [4f, 3-Amino-2-((2,4-dichlorophenoxy)methyl)-3H-quinazolin-4-one]",inhibition at 1 µg/mL,[1]; [4],35%
same,inhibition at 1 µg/mL,[1]; [5],-5%
same,inhibition at 10 µg/mL,[1]; [6],22.2%
same,inhibition at 10 µg/mL,[1]; [7],-6.6%
same,inhibition at 1 µg/mL,rape Brassica napus [2]; [4],65.6%
same,inhibition at 1 µg/mL,rape Brassica napus [2]; [5],48.1%
same,inhibition at 10 µg/mL,rape Brassica napus [2]; [6],73.4%
same,inhibition at 10 µg/mL,rape Brassica napus [2]; [7],48.1%
same,IC50,rape Brassica napus [3]; [8],224 µM
same,melting point,,214.6 to 215.7 °C
"O=c1oc(COc2ccc(Cl)cc2)nc2ccccc12 [3g, 2-((4-Chlorophenoxy)methyl)-4H-3,1-benzoxazin-4-one]",inhibition at 1 µg/mL,[1]; [4],53.7%
same,inhibition at 1 µg/mL,[1]; [5],-25.6%
same,inhibition at 10 µg/mL,[1]; [6],79.5%
same,inhibition at 10 µg/mL,[1]; [7],-1.8%
same,inhibition at 1 µg/mL,rape Brassica napus [2]; [4],98%
same,inhibition at 1 µg/mL,rape Brassica napus [2]; [5],56.8%
same,inhibition at 10 µg/mL,rape Brassica napus [2]; [6],100%
same,inhibition at 10 µg/mL,rape Brassica napus [2]; [7],68%
same,IC50,rape Brassica napus [3]; [8],30.4 µM
same,melting point,,147.5 to 149.2 °C
